# ChEMBL document CHEMBL3351901 (Bioorg Med Chem, 2014)
# Where a chain is given by its changes, count along the chain named.
# Legend:
# [1] = target: T1, Aldo-keto reductase family 1 member C3 (Homo sapiens, UniProt P42330)
# T1 sequence (P42330 whole entry): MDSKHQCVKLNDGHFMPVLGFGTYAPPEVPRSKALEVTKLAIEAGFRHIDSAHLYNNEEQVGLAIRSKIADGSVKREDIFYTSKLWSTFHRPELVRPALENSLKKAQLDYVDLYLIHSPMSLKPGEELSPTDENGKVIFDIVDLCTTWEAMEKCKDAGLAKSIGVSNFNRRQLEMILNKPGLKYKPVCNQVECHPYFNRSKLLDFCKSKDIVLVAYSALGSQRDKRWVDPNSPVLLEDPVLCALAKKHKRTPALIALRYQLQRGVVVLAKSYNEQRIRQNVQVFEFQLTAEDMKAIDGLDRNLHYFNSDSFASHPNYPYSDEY
# Description: Inhibition of AKR1C3 (unknown origin) assessed as dehydrogenase activity of enzyme by NADPH fluorescence assay
# [2] = target: T2, Aldo-keto reductase family 1 member C1 (Homo sapiens, UniProt Q04828); experiment: Inhibition of AKR1C1 (unknown origin) assessed as dehydrogenase activity of enzyme by NADPH fluorescence assay
# T2 sequence (Q04828 whole entry): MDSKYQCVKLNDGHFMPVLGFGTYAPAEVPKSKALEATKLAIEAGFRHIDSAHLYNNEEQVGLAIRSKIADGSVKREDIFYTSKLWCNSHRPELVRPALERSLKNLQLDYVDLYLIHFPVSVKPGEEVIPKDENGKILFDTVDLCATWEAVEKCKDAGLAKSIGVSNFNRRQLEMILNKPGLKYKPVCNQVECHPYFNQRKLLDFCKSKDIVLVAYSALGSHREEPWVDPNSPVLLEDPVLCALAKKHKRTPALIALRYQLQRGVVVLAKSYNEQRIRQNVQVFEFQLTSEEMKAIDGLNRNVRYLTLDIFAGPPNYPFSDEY
# [3] = target: T3, Aldo-keto reductase family 1 member C2 (Homo sapiens, UniProt P52895); experiment: Inhibition of AKR1C2 (unknown origin) assessed as dehydrogenase activity of enzyme by NADPH fluorescence assay
# T3 sequence (P52895 whole entry): T2 sequence (Q04828 whole entry) with T38V, R47H, L54V, C87S, V151M, R170H, Q172L
# [4] = target: T4, Aldo-keto reductase family 1 member C4 (Homo sapiens, UniProt P17516); experiment: Inhibition of AKR1C4 (unknown origin) assessed as dehydrogenase activity of enzyme by NADPH fluorescence assay
# T4 sequence (P17516 whole entry): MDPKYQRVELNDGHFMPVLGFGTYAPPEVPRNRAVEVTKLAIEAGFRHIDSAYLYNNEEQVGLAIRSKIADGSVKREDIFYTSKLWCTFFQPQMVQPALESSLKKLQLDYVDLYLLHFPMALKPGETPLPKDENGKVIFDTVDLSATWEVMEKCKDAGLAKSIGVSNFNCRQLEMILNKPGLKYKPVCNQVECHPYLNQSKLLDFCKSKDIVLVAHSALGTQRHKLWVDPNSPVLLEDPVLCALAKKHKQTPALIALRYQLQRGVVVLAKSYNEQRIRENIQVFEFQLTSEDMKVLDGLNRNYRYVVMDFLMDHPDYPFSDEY
# [5] = target: T1, Aldo-keto reductase family 1 member C3; experiment: Inhibition of AKR1C3-mediated androsterone metabolism in human A549 cells assessed as 5alpha-androstane-3alpha, 17beta-diol after 24 hrs by LC/MS analysis; assay type: cell-based
IC50 [1] [nM],SMILES,also measured
540,O=C(O)/C=C/c1ccc(OC(=O)CCc2ccc(F)cc2)c(OCc2cccc(F)c2)c1,–
20,O=C(O)/C=C/c1ccc(OC(=O)CCc2ccccc2)c(OCc2cccc(O)c2)c1,IC50 [2]: 81000 nM; IC50 [3]: > 100000 nM; IC50 [4]: 20000 nM; IC50 [5]: 8000 nM
910,Cc1ccc(COc2cc(/C=C/C(=O)O)ccc2OC(=O)CCc2cccc(O)c2)cc1,–
1100,C/C=C/COc1cc(/C=C/C(=O)O)ccc1OC(=O)CCc1ccccc1,–
420,CCCCOc1cc(/C=C/C(=O)O)ccc1OC(=O)CCc1ccccc1,–
110,O=C(O)/C=C/c1ccc(OC(=O)CCc2ccccc2)c(OCc2cccc(F)c2)c1,–
840,O=C(O)/C=C/c1ccc(OC(=O)CCc2ccc(O)cc2)c(OCc2cccc(F)c2)c1,–
570,O=C(O)/C=C/c1ccc(OC(=O)CCc2ccccc2)c(OCCc2ccccc2)c1,–
360,O=C(O)/C=C/c1ccc(OC(=O)CCc2ccccc2)c(OCc2cc(F)cc(F)c2)c1,–
390,O=C(O)/C=C/c1ccc(OC(=O)CCc2ccccc2)c(OCc2ccccc2)c1,–
2200,CCCOc1cc(/C=C/C(=O)O)ccc1OC(=O)CCc1ccccc1,–
850,C=C(C)COc1cc(/C=C/C(=O)O)ccc1OC(=O)CCc1ccccc1,–
540,Cc1ccc(COc2cc(/C=C/C(=O)O)ccc2OC(=O)CCc2c(F)cc(F)cc2F)cc1,–
4500,COc1cc(/C=C/C(=O)O)ccc1OC(=O)CCc1ccccc1,–
320,O=C(O)/C=C/c1ccc(OC(=O)CCc2ccccc2)c(OCc2ccccc2F)c1,–
560,CC(C)COc1cc(/C=C/C(=O)O)ccc1OC(=O)CCc1ccccc1,–
220,O=C(O)/C=C/c1ccc(OC(=O)CCc2ccccc2)c(OCc2ccc(F)cc2)c1,–
800,O=C(O)/C=C/c1ccc(OC(=O)CCc2cccc(O)c2)c(OCc2cccc(F)c2)c1,–
160,Cc1ccc(COc2cc(/C=C/C(=O)O)ccc2OC(=O)CCc2cccc(F)c2)cc1,–
400,O=C(O)/C=C/c1ccc(OC(=O)CCc2cccc(F)c2)c(OCc2cccc(F)c2)c1,–
110,Cc1ccc(COc2cc(/C=C/C(=O)O)ccc2OC(=O)CCc2ccccc2)cc1,–
970,CCOc1cc(/C=C/C(=O)O)ccc1OC(=O)CCc1ccccc1,–
580,O=C(O)/C=C/c1ccc(OC(=O)CCc2c(F)cc(F)cc2F)c(OCc2cccc(F)c2)c1,–
770,Cc1ccc(COc2cc(/C=C/C(=O)O)ccc2OC(=O)CCc2ccc(O)cc2)cc1,–
470,Cc1ccc(COc2cc(/C=C/C(=O)O)ccc2OC(=O)CCc2ccc(F)cc2)cc1,–
960,COc1cccc(COc2cc(/C=C/C(=O)O)ccc2OC(=O)CCc2ccccc2)c1,IC50 [2]: > 100000 nM; IC50 [3]: > 100000 nM; IC50 [4]: > 100000 nM
890,O=C(O)/C=C/c1ccc(OC(=O)CCc2ccccc2)c(OCc2ccc(Cl)cc2)c1,–
3100,CC(C)Oc1cc(/C=C/C(=O)O)ccc1OC(=O)CCc1ccccc1,–
